Tests used:
[1] = biological target: T1, recombinant N-terminal PMS2 (residues 1-365) (Homo sapiens, UniProt P54278); assay: Fluorescence Polarisation Assay for PMS2; assay type: binding; conditions: fluorescence polarisation probe displacement; 10 nM N-terminal PMS2, 5 nM probe compound; read-out: PMS2 IC50
T1 construct: recombinant N-terminal PMS2 (residues 1-365)
T1 sequence (P54278 1-365): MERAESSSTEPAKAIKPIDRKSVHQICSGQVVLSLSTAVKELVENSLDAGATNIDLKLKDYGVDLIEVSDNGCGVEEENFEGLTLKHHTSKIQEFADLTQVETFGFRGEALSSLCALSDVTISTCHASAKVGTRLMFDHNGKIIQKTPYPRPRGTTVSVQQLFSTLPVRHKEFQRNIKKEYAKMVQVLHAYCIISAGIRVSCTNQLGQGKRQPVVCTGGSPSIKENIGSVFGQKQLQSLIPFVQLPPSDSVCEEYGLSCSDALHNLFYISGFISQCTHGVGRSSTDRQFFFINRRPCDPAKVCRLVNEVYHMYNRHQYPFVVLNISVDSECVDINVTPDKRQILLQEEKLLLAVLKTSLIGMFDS
Description: Fluorescence Polarisation Assay for PMS2
For single point screening, test compounds were added to wells in columns 1-22 whilst DMSO was added to wells in columns 23 and 24 in order to normalise the plate. For potency determination, serial dilutions of test compounds were added to wells in columns 3-22 and DMSO volume was normalised across the plate.
20 μL assay buffer was added to all wells in columns 1 and 24 (column 24 only for single point screening) using a MultiDrop Combi (ThermoFisher). Plates were centrifuged for 1 minute at 250×g and were incubated at room temperature for 30 minutes prior to the addition of 20 μL of 2× (20 nM) of 5-((5-(4-((2-(2,4-dihydroxy-5-isopropylbenzoyl)isoindolin-5-yl)methyl)piperazin-1-yl)pentyl)carbamoyl)-2-(6-(dimethylamino)-3-(dimethyliminio)-3H-xanthen-9-yl)benzoate (referred to hereinafter as “probe compound”) in assay buffer (prepared from a 100 μM DMSO stock) with a MultiDrop Combi (ThermoFisher). The final concentration of N-terminal PMS2 was 10 nM and the final concentration of probe compound was 5 nM.
Compound plates were centrifuged for 1 minute at 250×g for 1 minute and were incubated at room temperature for 1 hour before being read on a PheraStar FSX (fitted with 384-well aperture spoon and 540 590 590 FP optic module). The gain and focus were adjusted before each plate was read so that the polarisation of a no enzyme control (column 24) was equal to 35 mP. Data were normalised against the no inhibitor controls (column 23) and no enzyme controls (column 24).

[2] = biological target: T2, recombinant N-terminal MLH1 (residues 15-340) (Homo sapiens, UniProt P40692); assay: Fluorescence Polarisation Assay for MLH1; assay type: binding; conditions: fluorescence polarisation probe displacement; 100 nM N-terminal MLH1, 5 nM probe compound
T2 construct: recombinant N-terminal MLH1 (residues 15-340)
T2 sequence (P40692 15-340): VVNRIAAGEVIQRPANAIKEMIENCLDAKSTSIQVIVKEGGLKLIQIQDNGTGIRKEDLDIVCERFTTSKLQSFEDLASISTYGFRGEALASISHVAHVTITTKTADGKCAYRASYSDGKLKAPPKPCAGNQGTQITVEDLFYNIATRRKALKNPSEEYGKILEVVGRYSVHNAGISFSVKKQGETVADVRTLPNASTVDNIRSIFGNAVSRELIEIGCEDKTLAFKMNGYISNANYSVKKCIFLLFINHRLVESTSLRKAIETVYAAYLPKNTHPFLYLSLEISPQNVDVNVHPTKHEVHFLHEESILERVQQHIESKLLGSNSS
Description: Fluorescence Polarisation Assay for MLH1
Test compounds, as 10 mM DMSO stocks, were dispensed into a 384-well Low Flange Black Flat Bottom Polystyrene Non-binding Surface plate (Corning®, item number 3575) using a Labcyte Echo acoustic liquid handler. Test compounds were added to wells in columns 1-22 whilst DMSO was added to wells in columns 23 and 24 in order to normalise the plate. 20 μL of a 2× solution (200 nM) of recombinant N-terminal MLH1 (residues 15-340) in assay buffer (25 mM HEPES, pH 7.5, 250 mM NaCl, 10 mM MgCl2, 0.01% Triton X-100, 5 mM dithiothreitol) was added to all wells in columns 1-23 and 20 μL assay buffer was added to all wells in column 24 using an E1-ClipTip pipette (ThermoFisher). Plates were centrifuged for 1 minute at 250×g and were incubated at room temperature for 30 minutes prior to the addition of 20 μL of 2× (10 nM) 5-((5-(4-((2-(2,4-dihydroxy-5-isopropylbenzoyl)isoindolin-5-yl)methyl)piperazin-1-yl)pentyl)carbamoyl)-2-(6-(dimethylamino)-3-(dimethyliminio)-3H-xanthen-9-yl)benzoate in assay buffer (prepared from a 1 mM DMSO stock) with an E1-ClipTip pipette (ThermoFisher). The final concentration of N-terminal MLH1 was 100 nM and the final concentration of the probe compound was 5 nM. Compound plates were centrifuged for 1 minute at 250×g for 1 minute and immediately read on a PheraStar FSX (fitted with 384-well aperture spoon and 590 675 675 FP optic module). The gain and focus were adjusted before each plate was read so that the polarisation of a no enzyme control (column 24) was equal to 35 mP. Data were normalised against the no inhibitor controls (column 23) and no enzyme controls (column 24).

Row | SMILES | IC50 [1] [nM] | IC50 [2] [nM]
1 | O=C(c1c(O)cc(O)cc1OCc1ccccc1)N1Cc2cccc(NC3CCCOC3)c2C1 (single isomer, unassigned) [Example 31, (2-(Benzyloxy)-4,6-dihydroxyphenyl)(4-((tetrahydro-2H-pyran-3-yl)amino)isoindolin-2-yl)methanone] | > 10000 | 1000 to 10000
2 | O=C(c1c(O)cc(O)cc1OCc1ccccc1)N1Cc2ccccc2C(O)C1 (single isomer, unassigned) [Example 50, (2-Benzyloxy-4,6-dihydroxy-phenyl)-(4-hydroxy-3,4-dihydro-1H-isoquinolin-2-yl)methanone] | > 10000 | 1000 to 10000
3 | O=C(c1c(O)cc(O)cc1OCc1ccccc1)N1Cc2ccccc2C(O)C1 (single isomer, unassigned) [Example 51, (2-Benzyloxy-4,6-dihydroxy-phenyl)-(4-hydroxy-3,4-dihydro-1H-isoquinolin-2-yl)methanone] | > 10000 | 1000 to 10000
4 | CN1CC(Nc2cccc3c2CN(C(=O)c2c(O)cc(O)cc2OCc2ccccc2)CC3)CC1=O (single isomer, unassigned) [Example 61, 4-((2-(2-(Benzyloxy)-4,6-dihydroxybenzoyl)-1,2,3,4-tetrahydroisoquinolin-8-yl)amino)-1-methylpyrrolidin-2-one] | > 10000 | < 1000
5 | CN1CC(Nc2cccc3c2CN(C(=O)c2c(O)cc(O)cc2OCc2ccccc2)CC3)CC1=O (single isomer, unassigned) [Example 62, 4-((2-(2-(Benzyloxy)-4,6-dihydroxybenzoyl)-1,2,3,4-tetrahydroisoquinolin-8-yl)amino)-1-methylpyrrolidin-2-one] | < 1000 | < 1000
6 | COc1cc2c(c(NC3CCOC3)c1)CN(C(=O)c1c(O)cc(O)cc1OCc1ccccc1)CC2 (single isomer, unassigned) [Example 72, (2-(Benzyloxy)-4,6-dihydroxyphenyl)(6-methoxy-8-((tetrahydrofuran-3-yl)amino)-3,4-dihydroisoquinolin-2(1H)-yl)methanone] | 1000 to 10000 | < 1000

Continued, values first:

Row | IC50 [1] [nM] | IC50 [2] [nM] | SMILES
7 | 1000 to 10000 | < 1000 | O=C(c1c(O)cc(O)cc1OCc1ccccc1)N1Cc2cccc(NC3CCCOC3)c2C1 (single isomer, unassigned) [Example 30, (2-(Benzyloxy)-4,6-dihydroxyphenyl)(4-((tetrahydro-2H-pyran-3-yl)amino)isoindolin-2-yl)methanone]
8 | > 10000 | 1000 to 10000 | COc1cc2c(c(NC3CCOC3)c1)CN(C(=O)c1c(O)cc(O)cc1OCc1ccccc1)CC2 (single isomer, unassigned) [Example 73, (2-(Benzyloxy)-4,6-dihydroxyphenyl)(6-methoxy-8-((tetrahydrofuran-3-yl)amino)-3,4-dihydroisoquinolin-2(1H)-yl)methanone]
9 | > 10000 | < 1000 | O=C(c1c(O)cc(O)cc1OCc1ccccc1)N1CCc2cccc(NC3CCS(=O)(=O)C3)c2C1 (single isomer, unassigned) [Example 147a, (2-(Benzyloxy)-4,6-dihydroxyphenyl)(8-((1,1-dioxidotetrahydrothiophen-3-yl)amino)-3,4-dihydroisoquinolin-2(1H)-yl)methanone]
10 | 1000 to 10000 | < 1000 | O=C(c1c(O)cc(O)cc1OCc1ccccc1)N1CCc2cccc(NC3CCS(=O)(=O)C3)c2C1 (single isomer, unassigned) [Example 147b, (2-(Benzyloxy)-4,6-dihydroxyphenyl)(8-((1,1-dioxidotetrahydrothiophen-3-yl)amino)-3,4-dihydroisoquinolin-2(1H)-yl)methanone]
11 | > 10000 | < 1000 | O=C(c1c(O)cc(O)cc1OCc1ccccc1)N1CCc2cccc(N[C@@H]3CCOC3)c2C1 [Example 1, (R)-(2-(Benzyloxy)-4,6-dihydroxyphenyl)(8-((tetrahydrofuran-3-yl)amino)-3,4-dihydro-isoquinolin-2(1H)-yl)methanone]
